In ChEMBL document CHEMBL3627617, “Investigation of new 2-aryl substituted Benzothiopyrano[4,3-d]pyrimidines as kinase inhibitors targeting vascular endothelial growth factor receptor 2” (Eur J Med Chem, 2015):

Key:
HUVEC = assay: Antiproliferative activity against human HUVEC cells assessed as reduction in cell viability after 72 hrs by trypan blue assay; assay type: functional
HeLa = assay: Antiproliferative activity against human HeLa cells assessed as cell viability after 72 hrs by trypan blue assay; assay type: functional
A-431 = assay: Antiproliferative activity against human A431 cells assessed as cell viability after 72 hrs by trypan blue assay; assay type: functional; conditions: A-431, 72 h
MSTO-211H = assay: Antiproliferative activity against human MSTO-211H cells assessed as cell viability after 72 hrs by trypan blue assay; assay type: functional
[1] = molecular target: RAF proto-oncogene serine/threonine-protein kinase (Homo sapiens) (UniProt P04049); assay: Inhibition of human RAF1 at 10 uM by kinase inhibition assay
Aorta [2] = assay: Anti-angiogenic activity in rat aortic explant assessed as microvessel sprouting inhibition at 5 uM incubated for 7 days by rat aortic ring assay; assay type: functional; conditions: 168 h
[3] = molecular target: Rho-associated protein kinase 1 (Homo sapiens) (UniProt Q13464); assay: Inhibition of human ROCK1 at 10 uM by kinase inhibition assay
[4] = molecular target: Cyclin-dependent kinase 1 (Homo sapiens) (UniProt P06493); assay: Inhibition of human CDK1 at 10 uM by kinase inhibition assay
[5] = molecular target: Dual specificity mitogen-activated protein kinase kinase 1 (Homo sapiens) (UniProt Q02750); assay: Inhibition of human MEK1 at 10 uM by kinase inhibition assay
[6] = molecular target: Mitogen-activated protein kinase 3 (Homo sapiens) (UniProt P27361); assay: Inhibition of human ERK1 at 10 uM by kinase inhibition assay
Aorta [7] = assay: Anti-angiogenic activity in rat aortic explant assessed as microvessel sprouting inhibition at 10 uM incubated for 7 days by rat aortic ring assay; assay type: functional; conditions: 168 h
[8] = molecular target: Proto-oncogene tyrosine-protein kinase Src (Homo sapiens) (UniProt P12931); assay: Inhibition of human Src kinase at 10 uM by kinase inhibition assay
Aorta [9] = assay: Anti-angiogenic activity in rat aortic explant assessed as microvessel sprouting inhibition at 100 nM incubated for 7 days by rat aortic ring assay; assay type: functional; conditions: 168 h
[10] = molecular target: Vascular endothelial growth factor receptor 2 (Homo sapiens, UniProt P35968); assay: Inhibition of human KDR incubated for 50 mins by omnia tyr peptide 8 substrate based fluorescence assay
[11] = molecular target: T1, Aurora kinase A (Homo sapiens) (UniProt O14965); assay: Inhibition of human AurA kinase at 10 uM by kinase inhibition assay
T1 sequence (whole entry): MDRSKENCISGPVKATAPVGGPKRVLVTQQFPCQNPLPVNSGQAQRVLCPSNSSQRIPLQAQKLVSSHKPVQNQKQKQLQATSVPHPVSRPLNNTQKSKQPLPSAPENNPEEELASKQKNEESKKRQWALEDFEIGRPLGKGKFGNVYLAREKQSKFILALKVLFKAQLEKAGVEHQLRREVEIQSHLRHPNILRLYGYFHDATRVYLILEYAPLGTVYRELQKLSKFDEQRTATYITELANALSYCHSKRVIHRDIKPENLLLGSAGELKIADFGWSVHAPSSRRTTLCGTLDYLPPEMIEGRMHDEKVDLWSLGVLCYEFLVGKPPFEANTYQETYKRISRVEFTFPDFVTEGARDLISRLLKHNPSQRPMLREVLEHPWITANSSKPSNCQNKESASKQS

[12] = molecular target: Focal adhesion kinase 1 (Homo sapiens) (UniProt Q05397); assay: Inhibition of human FAK at 10 uM by kinase inhibition assay
[13] = molecular target: RAC-alpha serine/threonine-protein kinase (Homo sapiens) (UniProt P31749); assay: Inhibition of human Akt1 at 10 uM by kinase inhibition assay
Aorta [14] = assay: Anti-angiogenic activity in rat aortic explant assessed as microvessel sprouting inhibition at 1 uM incubated for 7 days by rat aortic ring assay; assay type: functional; conditions: 168 h
[15] = molecular target: Epidermal growth factor receptor (Homo sapiens, UniProt P00533)
[16] = molecular target: Platelet-derived growth factor receptor beta (Homo sapiens) (UniProt P09619); assay: Inhibition of human PDGFRbeta at 10 uM by kinase inhibition assay
HL-60 = assay: Antiproliferative activity against human HL60 cells assessed as growth inhibition; assay type: functional

Sequence of RAF proto-oncogene serine/threonine-protein kinase (Homo sapiens) (P04049 whole entry): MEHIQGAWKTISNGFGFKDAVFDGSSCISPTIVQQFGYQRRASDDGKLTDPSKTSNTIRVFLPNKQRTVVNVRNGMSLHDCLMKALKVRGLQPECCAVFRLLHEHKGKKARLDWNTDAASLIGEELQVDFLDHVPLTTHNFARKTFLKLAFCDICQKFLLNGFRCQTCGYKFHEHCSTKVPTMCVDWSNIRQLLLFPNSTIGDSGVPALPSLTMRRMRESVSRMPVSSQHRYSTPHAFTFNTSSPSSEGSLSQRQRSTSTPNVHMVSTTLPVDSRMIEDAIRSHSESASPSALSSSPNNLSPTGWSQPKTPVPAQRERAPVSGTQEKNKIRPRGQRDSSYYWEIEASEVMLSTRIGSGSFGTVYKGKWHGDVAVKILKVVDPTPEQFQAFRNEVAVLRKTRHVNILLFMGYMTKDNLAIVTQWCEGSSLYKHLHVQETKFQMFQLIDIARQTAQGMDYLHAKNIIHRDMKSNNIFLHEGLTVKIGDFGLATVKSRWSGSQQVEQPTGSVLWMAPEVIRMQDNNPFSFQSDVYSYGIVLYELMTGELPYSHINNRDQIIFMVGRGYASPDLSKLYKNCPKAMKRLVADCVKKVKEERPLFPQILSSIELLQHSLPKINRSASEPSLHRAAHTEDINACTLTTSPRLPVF
Sequence of Cyclin-dependent kinase 1 (Homo sapiens) (P06493 whole entry, looked up): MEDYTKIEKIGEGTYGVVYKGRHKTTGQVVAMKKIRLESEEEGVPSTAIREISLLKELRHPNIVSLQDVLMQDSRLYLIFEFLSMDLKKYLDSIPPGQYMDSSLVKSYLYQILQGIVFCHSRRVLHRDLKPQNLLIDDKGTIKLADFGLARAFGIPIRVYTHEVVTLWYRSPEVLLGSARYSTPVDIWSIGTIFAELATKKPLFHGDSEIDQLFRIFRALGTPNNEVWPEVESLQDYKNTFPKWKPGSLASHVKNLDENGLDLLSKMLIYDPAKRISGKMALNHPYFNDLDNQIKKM
Sequence of Platelet-derived growth factor receptor beta (Homo sapiens) (P09619 whole entry): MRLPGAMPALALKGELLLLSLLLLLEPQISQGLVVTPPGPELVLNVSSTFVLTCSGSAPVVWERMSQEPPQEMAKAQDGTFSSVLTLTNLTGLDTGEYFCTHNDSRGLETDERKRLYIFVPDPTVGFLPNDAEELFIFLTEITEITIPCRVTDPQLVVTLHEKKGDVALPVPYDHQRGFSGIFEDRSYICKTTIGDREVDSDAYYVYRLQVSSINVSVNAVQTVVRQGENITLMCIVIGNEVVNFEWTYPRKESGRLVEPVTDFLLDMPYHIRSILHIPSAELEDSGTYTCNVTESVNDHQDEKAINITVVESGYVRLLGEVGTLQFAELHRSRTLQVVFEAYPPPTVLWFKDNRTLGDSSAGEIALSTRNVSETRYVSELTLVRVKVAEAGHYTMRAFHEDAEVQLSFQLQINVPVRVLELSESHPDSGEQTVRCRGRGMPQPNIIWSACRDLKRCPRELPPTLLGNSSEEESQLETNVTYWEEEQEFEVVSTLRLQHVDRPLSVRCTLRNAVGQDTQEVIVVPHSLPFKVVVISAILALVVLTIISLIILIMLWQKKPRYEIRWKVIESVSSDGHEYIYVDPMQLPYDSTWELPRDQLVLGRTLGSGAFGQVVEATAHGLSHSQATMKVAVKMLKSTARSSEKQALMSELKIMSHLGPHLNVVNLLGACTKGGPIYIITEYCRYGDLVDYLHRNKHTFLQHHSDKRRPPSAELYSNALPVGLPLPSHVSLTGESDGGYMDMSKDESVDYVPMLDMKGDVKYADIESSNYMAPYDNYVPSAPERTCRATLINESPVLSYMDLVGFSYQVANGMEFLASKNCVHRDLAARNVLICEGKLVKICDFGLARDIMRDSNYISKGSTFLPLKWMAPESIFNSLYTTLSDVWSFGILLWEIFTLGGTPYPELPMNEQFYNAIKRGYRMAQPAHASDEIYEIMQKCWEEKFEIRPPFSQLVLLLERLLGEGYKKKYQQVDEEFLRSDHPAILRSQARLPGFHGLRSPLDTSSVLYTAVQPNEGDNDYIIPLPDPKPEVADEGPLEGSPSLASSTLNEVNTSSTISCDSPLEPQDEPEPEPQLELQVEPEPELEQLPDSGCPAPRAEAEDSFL
Sequence of Dual specificity mitogen-activated protein kinase kinase 1 (Homo sapiens) (Q02750 whole entry): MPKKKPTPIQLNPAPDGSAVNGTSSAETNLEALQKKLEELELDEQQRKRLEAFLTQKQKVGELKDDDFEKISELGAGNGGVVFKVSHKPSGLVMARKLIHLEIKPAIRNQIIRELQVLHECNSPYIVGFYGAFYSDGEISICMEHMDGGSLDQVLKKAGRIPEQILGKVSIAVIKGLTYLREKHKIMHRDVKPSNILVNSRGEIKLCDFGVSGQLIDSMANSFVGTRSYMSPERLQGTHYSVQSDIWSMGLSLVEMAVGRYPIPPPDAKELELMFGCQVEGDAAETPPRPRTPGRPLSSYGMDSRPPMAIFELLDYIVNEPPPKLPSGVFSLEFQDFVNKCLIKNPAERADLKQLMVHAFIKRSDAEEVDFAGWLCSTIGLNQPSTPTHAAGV
Sequence of Focal adhesion kinase 1 (Homo sapiens) (Q05397 2-1052 limits assumed): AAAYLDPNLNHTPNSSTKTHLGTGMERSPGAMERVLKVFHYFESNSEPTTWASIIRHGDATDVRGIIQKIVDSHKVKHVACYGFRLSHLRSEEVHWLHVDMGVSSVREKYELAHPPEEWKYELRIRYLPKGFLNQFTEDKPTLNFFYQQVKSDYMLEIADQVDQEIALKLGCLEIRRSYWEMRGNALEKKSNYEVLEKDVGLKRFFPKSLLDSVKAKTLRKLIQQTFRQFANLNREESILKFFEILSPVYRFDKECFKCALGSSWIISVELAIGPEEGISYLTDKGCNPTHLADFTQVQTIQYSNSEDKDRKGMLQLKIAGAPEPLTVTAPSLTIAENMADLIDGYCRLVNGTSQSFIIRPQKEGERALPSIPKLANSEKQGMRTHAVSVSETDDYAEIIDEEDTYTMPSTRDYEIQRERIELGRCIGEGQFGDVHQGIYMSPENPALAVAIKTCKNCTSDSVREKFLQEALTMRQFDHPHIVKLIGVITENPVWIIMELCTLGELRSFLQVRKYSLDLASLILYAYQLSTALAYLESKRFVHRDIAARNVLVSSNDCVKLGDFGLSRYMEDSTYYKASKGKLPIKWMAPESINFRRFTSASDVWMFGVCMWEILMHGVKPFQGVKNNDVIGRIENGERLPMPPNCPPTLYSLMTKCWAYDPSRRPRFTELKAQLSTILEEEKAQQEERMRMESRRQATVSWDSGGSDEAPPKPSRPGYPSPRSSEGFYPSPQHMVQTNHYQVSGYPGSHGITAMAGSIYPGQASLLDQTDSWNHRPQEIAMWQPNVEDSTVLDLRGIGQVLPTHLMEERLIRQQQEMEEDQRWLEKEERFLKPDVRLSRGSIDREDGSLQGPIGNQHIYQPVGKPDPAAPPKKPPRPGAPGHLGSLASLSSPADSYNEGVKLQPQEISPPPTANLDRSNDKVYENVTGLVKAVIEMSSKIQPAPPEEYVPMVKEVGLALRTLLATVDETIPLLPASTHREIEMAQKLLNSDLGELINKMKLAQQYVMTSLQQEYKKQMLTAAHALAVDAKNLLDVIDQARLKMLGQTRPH
Sequence of Proto-oncogene tyrosine-protein kinase Src (Homo sapiens) (P12931 2-536 limits assumed): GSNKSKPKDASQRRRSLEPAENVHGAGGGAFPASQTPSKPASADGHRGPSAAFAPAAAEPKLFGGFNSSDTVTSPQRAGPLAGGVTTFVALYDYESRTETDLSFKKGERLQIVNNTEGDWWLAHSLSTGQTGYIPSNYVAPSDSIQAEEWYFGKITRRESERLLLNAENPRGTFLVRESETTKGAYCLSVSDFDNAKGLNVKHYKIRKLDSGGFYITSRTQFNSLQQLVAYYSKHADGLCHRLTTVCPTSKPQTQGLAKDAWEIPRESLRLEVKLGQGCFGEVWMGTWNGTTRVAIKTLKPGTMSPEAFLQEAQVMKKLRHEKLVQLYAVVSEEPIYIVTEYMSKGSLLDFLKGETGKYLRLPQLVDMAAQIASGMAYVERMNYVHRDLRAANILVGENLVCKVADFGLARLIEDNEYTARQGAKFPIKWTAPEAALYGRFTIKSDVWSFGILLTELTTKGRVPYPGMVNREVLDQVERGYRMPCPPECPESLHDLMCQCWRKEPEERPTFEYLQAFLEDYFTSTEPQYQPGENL
Sequence of RAC-alpha serine/threonine-protein kinase (Homo sapiens) (P31749 whole entry): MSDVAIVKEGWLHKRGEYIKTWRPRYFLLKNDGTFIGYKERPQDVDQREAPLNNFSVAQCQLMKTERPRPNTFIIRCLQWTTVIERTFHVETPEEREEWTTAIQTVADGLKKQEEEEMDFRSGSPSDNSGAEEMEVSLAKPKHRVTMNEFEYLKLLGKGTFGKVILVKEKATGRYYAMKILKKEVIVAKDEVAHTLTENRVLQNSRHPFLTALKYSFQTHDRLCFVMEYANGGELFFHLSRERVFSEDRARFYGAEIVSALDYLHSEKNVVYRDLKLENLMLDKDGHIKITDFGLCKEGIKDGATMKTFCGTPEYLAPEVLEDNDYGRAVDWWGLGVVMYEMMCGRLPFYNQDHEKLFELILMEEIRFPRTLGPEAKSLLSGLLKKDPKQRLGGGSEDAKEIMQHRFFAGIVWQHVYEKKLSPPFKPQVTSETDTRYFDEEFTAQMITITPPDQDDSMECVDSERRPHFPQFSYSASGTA
Sequence of Mitogen-activated protein kinase 3 (Homo sapiens) (P27361 whole entry): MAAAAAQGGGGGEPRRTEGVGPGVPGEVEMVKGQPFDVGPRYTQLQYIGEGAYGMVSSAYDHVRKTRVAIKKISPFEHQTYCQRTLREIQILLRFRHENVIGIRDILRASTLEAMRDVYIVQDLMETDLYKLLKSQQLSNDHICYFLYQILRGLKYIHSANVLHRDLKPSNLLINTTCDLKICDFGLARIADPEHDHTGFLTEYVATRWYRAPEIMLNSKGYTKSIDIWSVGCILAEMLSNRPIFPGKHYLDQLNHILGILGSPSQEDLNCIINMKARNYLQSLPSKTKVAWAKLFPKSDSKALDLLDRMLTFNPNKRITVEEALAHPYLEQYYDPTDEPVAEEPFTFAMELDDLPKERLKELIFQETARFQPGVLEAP

Compound | GI50 (HUVEC) | GI50 (HeLa) | GI50 (A-431) | GI50 (MSTO-211H) | further results
Clc1ccc2c(c1)SCc1cnc(NCc3ccccc3)nc1-2 | 15.1 µM | > 20 µM | > 20 µM | > 20 µM | –
c1ccc(CNc2ncc3c(n2)-c2ccccc2SC3)cc1 | > 20 µM | > 20 µM | > 20 µM | > 20 µM | –
Clc1ccc(Nc2ncc3c(n2)-c2ccc(Cl)cc2SC3)cc1 | 0.35 µM | 1.5 µM | 2.2 µM | 1.6 µM | inhibition [1]: -1.5%; inhibition at 5 µM (Aorta [2]): 88%; inhibition [3]: -5.6%; inhibition [4]: -3.2%; inhibition [5]: 5.9%; inhibition [6]: -4.3%; inhibition at 10 µM (Aorta [7]): 98%; inhibition [8]: 8.8%; inhibition at 0.1 µM (Aorta [9]): -0.5%; IC50 [10]: 5.6 µM; inhibition [11]: 0%; inhibition [12]: -0.9%; inhibition [13]: 3%; inhibition at 1 µM (Aorta [14]): 15%; IC50 [15]: 45.7 µM; inhibition [16]: 2.5%
COc1ccc(CNc2ncc3c(n2)-c2ccc(OC)cc2SC3)cc1 | > 20 µM | > 20 µM | > 20 µM | > 20 µM | –
COc1ccc2c(c1)SCc1cnc(NCc3ccccc3)nc1-2 | > 20 µM | > 20 µM | > 20 µM | > 20 µM | –
Clc1ccc(CNc2ncc3c(n2)-c2ccc(Cl)cc2SC3)cc1 | 17 µM | > 20 µM | > 20 µM | > 20 µM | –
COc1ccc2c(c1)SCc1cnc(NCc3ccc(Cl)cc3)nc1-2 | > 20 µM | > 20 µM | > 20 µM | > 20 µM | –
Clc1ccc2c(c1)SCc1cnc(-c3ccccc3)nc1-2 | 2.3 µM | > 20 µM | > 20 µM | > 20 µM | –
COc1ccc(Nc2ncc3c(n2)-c2ccc(OC)cc2SC3)cc1 | 0.74 µM | 0.83 µM | 0.96 µM | 1.08 µM | IC50 [10]: 17.5 µM
Cc1cc(C)c(/C=C2\C(=O)Nc3ccccc32)[nH]1 [SEMAXANIB] | 13.6 µM | – | – | – | inhibition at 5 µM (Aorta [2]): 72%; inhibition at 10 µM (Aorta [7]): 100%; inhibition at 0.1 µM (Aorta [9]): -12%; inhibition at 1 µM (Aorta [14]): -2%
Clc1ccc(Nc2ncc3c(n2)-c2ccccc2SC3)cc1 | 7.3 µM | 15.6 µM | > 20 µM | 11.5 µM | IC50 [10]: > 50 µM
COc1ccc(Nc2ncc3c(n2)-c2ccc(Cl)cc2SC3)cc1 | 16.4 µM | 2.1 µM | 5.8 µM | > 20 µM | IC50 [10]: > 50 µM; IC50 [15]: 21.6 µM
COc1ccc(CNc2ncc3c(n2)-c2ccc(Cl)cc2SC3)cc1 | 12 µM | > 20 µM | > 20 µM | > 20 µM | –
COc1ccc2c(c1)SCc1ncc(-c3ccccc3)nc1-2 | – | – | – | – | GI50 (HL-60): 7.15 µM
c1ccc(Nc2ncc3c(n2)-c2ccccc2SC3)cc1 | 2.4 µM | 10.2 µM | > 20 µM | 11.7 µM | IC50 [10]: 8.2 µM
Clc1ccc2c(c1)SCc1cnc(Nc3ccccc3)nc1-2 | > 20 µM | > 20 µM | > 20 µM | > 20 µM | IC50 [10]: > 50 µM
COc1ccc(-c2ncc3c(n2)-c2ccc(OC)cc2SC3)cc1 | 4.8 µM | > 20 µM | > 20 µM | > 20 µM | –
COc1ccc2c(c1)SCc1cnc(Nc3ccccc3)nc1-2 | 4.3 µM | 20.1 µM | > 20 µM | 15 µM | IC50 [10]: > 50 µM
Clc1ccc(CNc2ncc3c(n2)-c2ccccc2SC3)cc1 | 12.3 µM | > 20 µM | > 20 µM | > 20 µM | –
Clc1ccc(-c2ncc3c(n2)-c2ccccc2SC3)cc1 | 11.3 µM | > 20 µM | > 20 µM | > 20 µM | –
COc1ccc(-c2ncc3c(n2)-c2ccc(Cl)cc2SC3)cc1 | 4.7 µM | > 20 µM | > 20 µM | > 20 µM | –
COc1ccc(Nc2ncc3c(n2)-c2ccccc2SC3)cc1 | 0.45 µM | 0.7 µM | 0.96 µM | 1.08 µM | inhibition [1]: 4.1%; inhibition at 5 µM (Aorta [2]): 95%; inhibition [3]: -0.4%; inhibition [4]: 84.8%; inhibition [5]: 21.6%; inhibition [6]: -1.8%; inhibition at 10 µM (Aorta [7]): 96%; inhibition [8]: 12%; inhibition at 0.1 µM (Aorta [9]): -8%; inhibition [11]: 71.7%; inhibition [12]: 47.3%; inhibition [13]: 1.4%; inhibition at 1 µM (Aorta [14]): 9%; inhibition [16]: 42%
COc1ccc2c(c1)SCc1cnc(-c3ccc(Cl)cc3)nc1-2 | > 20 µM | > 20 µM | > 20 µM | > 20 µM | –
c1ccc(-c2ncc3c(n2)-c2ccccc2SC3)cc1 | 4 µM | > 20 µM | > 20 µM | > 20 µM | –
COc1ccc(-c2ncc3c(n2)-c2ccccc2SC3)cc1 | 12 µM | > 20 µM | > 20 µM | > 20 µM | –
COc1ccc2c(c1)SCc1cnc(-c3ccccc3)nc1-2 | 2.9 µM | > 20 µM | 6.5 µM | 11.9 µM | inhibition [1]: 2.6%; inhibition [3]: -6.3%; inhibition [4]: -4.2%; inhibition [5]: 14.6%; inhibition [6]: -1.7%; inhibition [8]: 0.3%; inhibition [11]: -2.2%; inhibition [12]: 11.6%; inhibition [13]: -4%; IC50 [15]: 4.72 µM; inhibition [16]: -6%
COc1ccc2c(c1)SCc1cnc(Nc3ccc(Cl)cc3)nc1-2 | > 20 µM | > 20 µM | > 20 µM | > 20 µM | IC50 [10]: > 50 µM
COc1ccc(CNc2ncc3c(n2)-c2ccccc2SC3)cc1 | > 20 µM | > 20 µM | > 20 µM | > 20 µM | –
Clc1ccc(-c2ncc3c(n2)-c2ccc(Cl)cc2SC3)cc1 | 15.3 µM | > 20 µM | > 20 µM | > 20 µM | –
